# Reference: patent publication US20150045387A1, “Bi-Aromatic And Tri-Aromatic Compounds As NADPH Oxidase 2 (Nox2) Inhibitors” (The University of Surrey, priority 2011, published 2015)
# Legend:
# [1] = tested on: Differentiate human neutrophils (HL-60 cells); assay: PMA-stimulated O2.- production by differentiated human neutrophils, lucigenin-chemiluminescence; format: cell-based; conditions: HL-60 neutrophils, PMA 100 ng/ml for 5 min
# Protocol: (§1) A) Differentiate human neutrophils (HL-60 cells, 5×10^4 cells/well) were stimulated with PMA (100 ng/ml) for 5 min in the presence or absence of LMH036 at the dose indicated. O2.^− production was measured by lucigenin-chemiluminescence. B) HPMEC were stimulated with TNFα (100 U/ml) for 45 min. Cells were immediately frozen in liquid nitrogen and homogenised. Cell homogenates (0.1 mg/well) were pre-incubated with LMH036 at the indicated dose for 5 min and measured for the O2.^− production in the presence of NADPH (100 μM) by lucigenin-chemiluminescence.
# HL-60 is a human promyelocytic leukaemia cell line. […]
# (§2) O2^− production by different cell types was measured using lucigenin (5 μM)-chemiluminescence. A microplate luminometer (LumiStar, BMG) was used, which allows the examination of 96 samples at the same time with kinetic reading facilities. […] Dark-adapted lucigenin (5 μM) was added into the well through an auto-dispenser located in the dark chamber just before reading. The light emission was recorded over a 60 minute period and expressed as arbitrary MLU measured by the illuminometer. Each experiment was performed in triplicate and the mean of 3 blank readings was subtracted from each corrected value for each reading. […]
# HPMEC = assay: NADPH-dependent O2.- production by homogenates of TNFα-stimulated HPMEC, lucigenin-chemiluminescence; format: cell-based, human; conditions: HPMEC stimulated with TNFα 100 U/ml 45 min, homogenates 0.1 mg/well, NADPH 100 μM
# Protocol: as §1, §2
# O2^− production was also studied using total cell homogenate (for the endothelial cells and the fibroblasts). […] Soluble protein concentration was determined using a kit from Bio-Rad Laboratories Ltd. (Hertfordshire, U.K.). […]
structure (smiles),measurement,setting,value
"OCc1cc(-c2ncc(-c3cccc(O)c3O)o2)ccc1O [LMH036, 3-(2-(4-hydroxy-3-(hydroxymethyl)phenyl)oxazol-5-yl)benzene-1,2-diol]",O2.- production by human cells,[1],inhibitory effect
same,O2.- production by human cells,HPMEC,inhibitory effect
